One test concerns endothelial cells. As to the kind of experiment: Binding of 32P-labelled relaxin to endothelial cells.
Test [1] deals with wound chambers at shoulder and hip of Sprague Dawley rats. Briefly: Hunt-Schilling wound chamber assay. The format is in vivo, rat. As to the method:
The effect of rhRLX on normal and ischemic wound healing in two rat models of dermal wound healing was evaluated. RhRLX in vehicle, or vehicle alone, was delivered by subcutaneous infusion to Sprague-Dawley rats using an implanted ALZET7 osmotic pump (Alza Corp., Mountain View, Calif.).
In the first model, Hunt-Schilling wound chambers were implanted subcutaneously at either the shoulder or the hip region. The fluid and cells contained within each wound chamber were collected on day 18 for analysis of VEGF protein and mRNA. VEGF protein was detected and measured using ELISA. VEGF-encoding mRNA was detected using Northern blotting and RT-PCR. The granulation tissue within the wound chambers was collected for histological and immunohistochemical evaluation.
Stainless steel mesh cylinders (0.9 cm×3.4 cm) fitted with silicone rubber plugs at both ends were autoclaved prior to implantation. Chambers were implanted into two separate subcutaneous pockets (“Site 1” on the shoulder and “Site 2” on the hip) on the backs of Sprague Dawley rats. At the same time, osmotic pumps were implanted in a subcutaneous pocket at site distal to that of the chambers. At 18 days, chambers were carefully dissected free from the interstitium, and fluid aspirated using an 18-gauge needle through the silicone plugs at the end of the cylinder, and immediately placed on ice. Cells suspended within the fluid were pelleted by centrifugation, and cells and fluid were separated. Total RNA was harvested using RNAzol (Tel-Test, Inc., Friendswood, Tex.), according to vendor instructions. Fluid was immediately frozen, and assayed at a later date for cyokine content.
Primers were purchased from BioSource International (Camarillo, Calif.) and visualized using agarose gel electrophoresis.
Sense and anti-sense primers for use with the real time RT-PCR, ABI Prism 7700 Sequence Detection System were designed using the PrimerExpress version 1.0 software (PE Applied Biosystems, Inc.). Rat and human specific primer/probe sets included those for GAPDH, bFGF, the VEGF 164 aa or 120 aa rat isoforms, and their respective human homologues (VEGF 165 and VEGF 121). ABI PRISM specific primer/probes were purchased from BioSource International Inc. or PE Applied Biosystems.
RT-PCR was performed on 150 ng for the analysis of VEGF and bFGF mRNA expression. Ten nanograms of total RNA was used for GAPDH niRNA expression. PCR products using the ABI Prism 7700 Sequence Detection system (all reactions in a total volume of […]) were generated using primer/probe annealing temperatures of 58° C. and 35 cycles of PCR. Data were analyzed using Sequence Detector v1.6.3 software (Applied Biosystems/PE).
Relaxin was administered systemically to rats using osmotic pumps. In order to assess relaxin's ability to modulate expression of angiogenic cytokines at wound sites, Hunt-Schilling wound chambers were used for fluid and inflammatory cell collection. Wound chambers were implanted subcutaneously at two sites, the shoulder and the hip, distal to the site of pump implantation. Fluid and cells were collected at a point (18 days) during the healing time course when endogenous angiogenic activity and the cellular source, macrophages, were known to be present. Total RNA was harvested from wound cells and analyzed by RT-PCR for VEGF transcripts. When analyzed on an agarose gel, there were two distinct bands comprising the amplified products, corresponding to the 121aa and 164aa, isoforms of VEGF.
To assess the effect of rhRlx treatment on granulation tissue formation in normal and ischemic wounds, Hunt-Schilling wound chambers were implanted subcutaneously in either the shoulder or the more hypoxic hip region of female Sprague Dawley rats (Charles River Laboratories, Mass.). The wound chambers, fine stainless steel mesh cylinders sealed with medical grade silicone, provide a defined dead space for granulation tissue formation. […]

Test [2] concerns small mesenteric arteries. As to the kind of experiment: Myogenic reactivity of small mesenteric arteries. The format is in vivo, rat. The following applies: female rats chronically administered rhRLX (FIG. 15).
Where [3] appears, read: wound chamber cells, both shoulder and hip region, day 18.
[4] abbreviates: wound chambers in the hip region.

Consider “rhRLX: recombinant human relaxin, identical in amino acid sequence to the product of the human H2 gene; A chain of 24, B chain of 29 amino acids”, for which the “binding of 32P-labelled relaxin to endothelial cells” value in the test with endothelial cells was “could not be detected”. Moreover, the “expression of VEGF 164 mRNA” value in test [1] (anteriorly placed (shoulder) wound chamber, real-time RT-PCR) is listed as “upregulated”. Moreover, in test [1] (both shoulder and hip chambers), the “bFGF transcripts in wound cells” value was “significant upregulation”. The “VEGF 120 mRNA” value in test [1] (both sites, real-time RT-PCR) is recorded as “trends toward increases”. Also, the “expression of VEGF 164 mRNA” value in test [1] (chamber placed on the hip, real-time RT-PCR) is given as “trend toward an increase”. Further, in test [1] (hip region (Example 7)), the “bFGF, and VEGF expression in wounds cells” value was “increase”; the “new blood vessel formation” value is “increase”. In test [1] (wound cells, 18 days), the “Expression of both VEGF isoforms, RT-PCR on agarose gel” value was “appeared to be enhanced”. In addition, in test [1] (setting [3]), the “VEGF mRNA increase compared to vehicle-treated rats” value is on record as 31% and the “bFGF mRNA increase compared to vehicle-treated rats” value amounted to 59%. Moreover, in test [1] (wound chambers at the hip region, day 18 (Example 7)), the “weight of granulation tissue” value is recorded as “significant increase”. In test [1] (setting [4]), the “amount of extracellular matrix deposition” value is listed as “increased”, the “amount of granulation tissue” value is on record as 255 mg and the number of capillaries entry was “increased”. Moreover, the tissue weight in test [1] (wound chambers in the shoulder region) came out at 283 mg. The myogenic reactivity result in test [2] is given as “reduced myogenic reactivity”.

Values taken from patent publication US6723702B2, “Use of relaxin treat diseases related to vasoconstriction” (RAS Medical, Inc., priority 2000, dated 2004).
